Results from patent US20140031278A1, “Novel Glucagon Analogues” (NOVO NORDISK A/S, priority 2011, published 2014).
*1 amine or outer side, *2 acyl side, *3 side chain or, on linkers, in order; H or OH if unused. Where a SMILES comes first, the peptide text is derived from it. Side-chain parts run from the residue outwards. γGlu = O=C(O)[C@H](CCC(=O)[*:2])N[*:1]

Molecular target: T1, glucagon receptor (Homo sapiens, UniProt P47871)
T1 construct: expressed in transfected cells
Assay: Assay (I) Glucagon activity (cAMP biosensor, FLIPR)
Type: cell-based
Details: HEK-293 cells with cloned glucagon receptor and cAMP biosensor; end point after 6 minutes
Method in brief: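 HEK-293 cells expressing glucagon receptor with membrane cAMP biosensor (ACTOne), calcium-dye loaded with probenecid and a PDE inhibitor.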

T1 sequence (P47871 26-477): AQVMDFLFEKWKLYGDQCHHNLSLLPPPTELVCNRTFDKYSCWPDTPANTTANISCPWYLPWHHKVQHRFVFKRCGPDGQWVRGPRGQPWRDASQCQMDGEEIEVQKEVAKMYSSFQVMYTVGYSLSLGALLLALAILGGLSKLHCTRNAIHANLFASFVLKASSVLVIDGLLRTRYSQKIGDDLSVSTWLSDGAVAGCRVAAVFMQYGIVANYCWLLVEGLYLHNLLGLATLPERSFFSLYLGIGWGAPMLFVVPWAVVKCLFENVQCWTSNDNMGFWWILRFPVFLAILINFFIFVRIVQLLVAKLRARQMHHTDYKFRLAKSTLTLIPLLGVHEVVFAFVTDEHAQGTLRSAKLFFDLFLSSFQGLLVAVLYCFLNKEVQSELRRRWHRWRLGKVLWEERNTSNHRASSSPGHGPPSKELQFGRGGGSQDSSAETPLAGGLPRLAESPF

| Structure (SMILES) | EC50 [nM] |
| --- | --- |
| CC(=O)N[C@@H](CCC(=O)N[C@@H](CCC(=O)N[C@@H](CCC(=O)N[C@@H](CCC(=O)NCCCC[C@H](NC(=O)[C@@H](NC(=O)[C@H](Cc1ccccc1)NC(=O)[C@H](CCC(=O)O)NC(=O)[C@H](C)NC(=O)[C@H](C)NC(=O)[C@H](CCCNC(=N)N)NC(=O)[C@H](CCCNC(=N)N)NC(=O)[C@@H](NC(=O)[C@H](CC(=O)O)NC(=O)[C@H](CC(C)C)NC(=O)[C@H](Cc1ccc(O)cc1)NC(=O)[C@H](CCCCN)NC(=O)[C@H](CO)NC(=O)[C@H](Cc1ccc(O)cc1)NC(=O)[C@H](CC(=O)O)NC(=O)[C@H](CO)NC(=O)[C@@H](NC(=O)[C@H](Cc1ccccc1)NC(=O)[C@@H](NC(=O)CNC(=O)[C@H](Cc1c[nH]cn1)NC(=O)CNC(=O)[C@@H](N)Cc1c[nH]cn1)[C@@H](C)O)[C@@H](C)O)C(C)C)C(C)C)C(=O)N[C@@H](Cc1c[nH]c2ccccc12)C(=O)N[C@@H](CC(C)C)C(=O)N[C@@H](CC(C)C)C(=O)N[C@@H](CO)C(=O)N[C@H](C(=O)O)[C@@H](C)O)C(=O)O)C(=O)O)C(=O)O)C(=O)O [Example 46, N^ε24-[(4S)-4-[[(4S)-4-[[(4S)-4-[[(4S)-4-acetamido-4-carboxybutanoyl]amino]-4-carboxybutanoyl]amino]-4-carboxybutanoyl]amino]-4-carboxybutanoyl]-[Gly^2,His^3,Val^16,Ala^2°,Glu^21,Lys^24,Leu^27,Ser^28]-Glucagon] (H-HGHGTFTSDYSKYLDVRRAAEFVK([γGlu-γGlu-γGlu-γGlu-Ac])WLLST-OH) | 0.024 |
| CC(=O)N[C@@H](CCC(=O)N[C@@H](CCC(=O)N[C@@H](CCC(=O)N[C@@H](CCC(=O)NCCCC[C@H](NC(=O)[C@@H](NC(=O)[C@H](Cc1ccccc1)NC(=O)[C@H](CC(=O)O)NC(=O)[C@H](CCC(N)=O)NC(=O)[C@H](C)NC(=O)[C@H](CCCNC(=N)N)NC(=O)[C@H](CCCNC(=N)N)NC(=O)[C@@H](NC(=O)[C@H](CC(=O)O)NC(=O)[C@H](CC(C)C)NC(=O)[C@H](Cc1ccc(O)cc1)NC(=O)[C@H](CCCCN)NC(=O)[C@H](CO)NC(=O)[C@H](Cc1ccc(O)cc1)NC(=O)[C@H](CC(=O)O)NC(=O)[C@H](CO)NC(=O)[C@@H](NC(=O)[C@H](Cc1ccccc1)NC(=O)[C@@H](NC(=O)CNC(=O)[C@H](Cc1c[nH]cn1)NC(=O)[C@H](CO)NC(=O)[C@@H](N)Cc1c[nH]cn1)[C@@H](C)O)[C@@H](C)O)[C@@H](C)O)C(C)C)C(=O)N[C@@H](Cc1c[nH]c2ccccc12)C(=O)N[C@@H](CC(C)C)C(=O)N[C@@H](CC(C)C)C(=O)N[C@@H](CO)C(=O)N[C@H](C(=O)O)[C@@H](C)O)C(=O)O)C(=O)O)C(=O)O)C(=O)O [Example 32, N^ε24-[(4S)-4-[[(4S)-4-[[(4S)-4-[[(4S)-4-acetamido-4-carboxybutanoyl]amino]-4-carboxybutanoyl]amino]-4-carboxybutanoyl]amino]-4-carboxybutanoyl]-[His3,Thr16,Lys24,Leu27,Ser28]-Glucagon] (H-HSHGTFTSDYSKYLDTRRAQDFVK([γGlu-γGlu-γGlu-γGlu-Ac])WLLST-OH) | 0.009 |
| CC(=O)N[C@@H](CCC(=O)N[C@@H](CCC(=O)N[C@@H](CCC(=O)N[C@@H](CCC(=O)NCCCC[C@H](NC(=O)[C@@H](NC(=O)[C@H](Cc1ccccc1)NC(=O)[C@H](CC(=O)O)NC(=O)[C@H](CCC(=O)O)NC(=O)[C@H](C)NC(=O)[C@H](CCCNC(=N)N)NC(=O)[C@H](CCCNC(=N)N)NC(=O)[C@H](CC(C)C)NC(=O)[C@H](CC(=O)O)NC(=O)[C@H](CC(C)C)NC(=O)[C@H](Cc1ccc(O)cc1)NC(=O)[C@H](CCCNC(=N)N)NC(=O)[C@H](CO)NC(=O)[C@H](Cc1ccc(O)cc1)NC(=O)[C@H](CC(=O)O)NC(=O)[C@H](CO)NC(=O)[C@@H](NC(=O)[C@H](Cc1ccccc1)NC(=O)[C@@H](NC(=O)CNC(=O)[C@H](CCC(N)=O)NC(=O)[C@H](CO)NC(=O)[C@@H](N)Cc1c[nH]cn1)[C@@H](C)O)[C@@H](C)O)C(C)C)C(=O)N[C@@H](Cc1c[nH]c2ccccc12)C(=O)N[C@@H](CC(C)C)C(=O)N[C@@H](CC(C)C)C(=O)N[C@@H](CO)C(=O)N[C@H](C(=O)O)[C@@H](C)O)C(=O)O)C(=O)O)C(=O)O)C(=O)O [Example 57, N^ε24-[(4S)-4-[[(4S)-4-[[(4S)-4-[[(4S)-4-acetamido-4-carboxybutanoyl]amino]-4-carboxybutanoyl]amino]-4-carboxybutanoyl]amino]-4-carboxybutanoyl]-[Arg^12,Leu^16,Glu^20,Lys^24,Leu^27,Ser^28]-Glucagon] (H-HSQGTFTSDYSRYLDLRRAEDFVK([γGlu-γGlu-γGlu-γGlu-Ac])WLLST-OH) | 0.017 |
| CC(=O)N[C@@H](CCC(=O)N[C@@H](CCC(=O)N[C@@H](CCC(=O)N[C@@H](CCC(=O)NCCCC[C@H](NC(=O)[C@@H](NC(=O)[C@H](Cc1ccccc1)NC(=O)[C@H](CC(=O)O)NC(=O)[C@H](CCC(N)=O)NC(=O)[C@H](C)NC(=O)[C@H](CCCNC(=N)N)NC(=O)[C@H](CCCNC(=N)N)NC(=O)[C@H](CO)NC(=O)[C@H](CCC(=O)O)NC(=O)[C@H](CC(C)C)NC(=O)[C@H](Cc1ccc(O)cc1)NC(=O)[C@H](CCCCN)NC(=O)[C@H](CO)NC(=O)[C@@H](NC(=O)[C@H](CC(=O)O)NC(=O)[C@H](CO)NC(=O)[C@@H](NC(=O)[C@H](Cc1ccccc1)NC(=O)[C@@H](NC(=O)CNC(=O)[C@H](CCC(N)=O)NC(=O)[C@H](CO)NC(=O)[C@@H](N)Cc1c[nH]cn1)[C@@H](C)O)[C@@H](C)O)C(C)C)C(C)C)C(=O)N[C@@H](Cc1c[nH]c2ccccc12)C(=O)N[C@@H](CC(C)C)C(=O)N[C@@H](CC(C)C)C(=O)N[C@@H](CO)C(=O)N[C@H](C(=O)O)[C@@H](C)O)C(=O)O)C(=O)O)C(=O)O)C(=O)O [Example 44, N^ε24-[(4S)-4-[[(4S)-4-[[(4S)-4-[[(4S)-4-acetamido-4-carboxybutanoyl]amino]-4-carboxybutanoyl]amino]-4-carboxybutanoyl]amino]-4-carboxybutanoyl]-[Val^10,Glu^15,Lys^24,Leu^27,Ser^28]-Glucagon] (H-HSQGTFTSDVSKYLESRRAQDFVK([γGlu-γGlu-γGlu-γGlu-Ac])WLLST-OH) | 0.075 |
| CC(=O)N[C@@H](CCC(=O)N[C@@H](CCC(=O)N[C@@H](CCC(=O)N[C@@H](CCC(=O)NCCCC[C@H](NC(=O)[C@@H](NC(=O)[C@H](Cc1ccccc1)NC(=O)[C@H](CC(=O)O)NC(=O)[C@H](CCC(N)=O)NC(=O)[C@H](C)NC(=O)[C@H](CCCNC(=N)N)NC(=O)[C@H](CCCNC(=N)N)NC(=O)[C@H](CO)NC(=O)[C@H](CC(=O)O)NC(=O)[C@H](CC(C)C)NC(=O)[C@H](Cc1ccc(O)cc1)NC(=O)[C@H](CCCCN)NC(=O)[C@H](CO)NC(=O)[C@H](Cc1ccc(O)cc1)NC(=O)[C@H](CC(=O)O)NC(=O)[C@H](CO)NC(=O)[C@@H](NC(=O)[C@H](Cc1ccccc1)NC(=O)[C@@H](NC(=O)CNC(=O)[C@H](Cc1c[nH]cn1)NC(=O)[C@H](CO)NC(=O)[C@@H](N)Cc1c[nH]cn1)[C@@H](C)O)[C@@H](C)O)C(C)C)C(=O)N[C@@H](Cc1c[nH]c2ccccc12)C(=O)N[C@@H](CC(C)C)C(=O)N[C@@H](CC(C)C)C(=O)N[C@@H](CC(N)=O)C(=O)N[C@H](C(=O)O)[C@@H](C)O)C(=O)O)C(=O)O)C(=O)O)C(=O)O [Example 19, N^ε24-[(4S)-4-[[(4S)-4-[[(4S)-4-[[(4S)-4-acetamido-4-carboxybutanoyl]amino]-4-carboxybutanoyl]amino]-4-carboxybutanoyl]amino]-4-carboxybutanoyl]-[His3,Lys24,Leu27]-Glucagon] | 0.0145 |

The remaining compounds from weak to strong by EC50, led by results:

| EC50 [nM] | Structure (SMILES) |
| --- | --- |
| 0.0124 | CC[C@H](C)[C@H](NC(=O)[C@H](CC(=O)O)NC(=O)[C@H](CC(C)C)NC(=O)[C@H](Cc1ccc(O)cc1)NC(=O)[C@H](CCCCN)NC(=O)[C@H](CO)NC(=O)[C@H](Cc1ccc(O)cc1)NC(=O)[C@H](CC(=O)O)NC(=O)[C@H](CO)NC(=O)[C@@H](NC(=O)[C@H](Cc1ccccc1)NC(=O)[C@@H](NC(=O)CNC(=O)[C@H](Cc1c[nH]cn1)NC(=O)[C@H](CO)NC(=O)[C@@H](N)Cc1c[nH]cn1)[C@@H](C)O)[C@@H](C)O)C(=O)N[C@@H](CCCNC(=N)N)C(=O)N[C@@H](CCCNC(=N)N)C(=O)N[C@@H](C)C(=O)N[C@@H](C)C(=O)N[C@@H](CC(=O)O)C(=O)N[C@@H](Cc1ccccc1)C(=O)N[C@H](C(=O)N[C@@H](CCCCNC(=O)CC[C@H](NC(=O)CC[C@H](NC(=O)CC[C@H](NC(=O)CC[C@H](NC(C)=O)C(=O)O)C(=O)O)C(=O)O)C(=O)O)C(=O)N[C@@H](Cc1c[nH]c2ccccc12)C(=O)N[C@@H](CC(C)C)C(=O)N[C@@H](CC(C)C)C(=O)N[C@@H](CO)C(=O)N[C@H](C(=O)O)[C@@H](C)O)C(C)C [Example 11] (H-HSHGTFTSDYSKYLDIRRAADFVK([γGlu-γGlu-γGlu-γGlu-Ac])WLLST-OH) |
| 0.003 | CC(=O)N[C@@H](CCC(=O)N[C@@H](CCC(=O)N[C@@H](CCC(=O)N[C@@H](CCC(=O)NCCCC[C@H](NC(=O)[C@@H](NC(=O)[C@H](Cc1ccccc1)NC(=O)[C@H](CC(=O)O)NC(=O)[C@H](CCC(N)=O)NC(=O)[C@H](C)NC(=O)[C@H](CCCNC(=N)N)NC(=O)[C@H](CCCNC(=N)N)NC(=O)[C@H](CC(C)C)NC(=O)[C@H](CC(=O)O)NC(=O)[C@H](CC(C)C)NC(=O)[C@H](Cc1ccc(O)cc1)NC(=O)[C@H](CCCCN)NC(=O)[C@H](CO)NC(=O)[C@H](Cc1ccc(O)cc1)NC(=O)[C@H](CC(=O)O)NC(=O)[C@H](CO)NC(=O)[C@@H](NC(=O)[C@H](Cc1ccccc1)NC(=O)[C@@H](NC(=O)CNC(=O)[C@H](CCC(N)=O)NC(=O)[C@@H](NC(=O)[C@@H](N)Cc1c[nH]cn1)[C@@H](C)O)[C@@H](C)O)[C@@H](C)O)C(C)C)C(=O)N[C@@H](Cc1c[nH]c2ccccc12)C(=O)N[C@@H](CC(C)C)C(=O)N[C@@H](CC(C)C)C(=O)N[C@@H](CO)C(=O)N[C@H](C(=O)O)[C@@H](C)O)C(=O)O)C(=O)O)C(=O)O)C(=O)O [Example 41, N^e24-[(4S)-4-[[(4S)-4-[[(4S)-4-[[(4S)-4-acetamido-4-carboxybutanoyl]amino]-4-carboxybutanoyl]amino]-4-carboxybutanoyl]amino]-4-carboxybutanoyl]-[Thr^2,Leu^16,Lys^24,Leu^27,Ser^28]-Glucagon] (H-HTQGTFTSDYSKYLDLRRAQDFVK([γGlu-γGlu-γGlu-γGlu-Ac])WLLST-OH) |
